We go through 13 compounds from ChEMBL document CHEMBL1142070, “Antimicrobial susceptibility and synergy studies of Burkholderia cepacia complex isolated from patients with cystic fibrosis” (2007).

Each structure is given as a SMILES string. Values after ≈ are worked out from the molar mass of the structure shown.

What all share (assay type): functional
The subject of assay [1] is Burkholderia cepacia. Kind of assay: Antimicrobial susceptibility of Burkholderia cepacia complex isolated from cystic fibrosis patient assessed as percent susceptible isolates.
The subject of assay [2] is Burkholderia cepacia. Kind of assay: Antimicrobial susceptibility of Burkholderia cepacia complex isolated from cystic fibrosis patient assessed as percent resistant isolates.
In assay [3] the test system is Burkholderia cepacia. Kind of assay: Antimicrobial activity against Burkholderia cepacia complex isolated from cystic fibrosis patient by broth microdilution assay.

Consider `NCC[C@H](O)C(=O)N[C@@H]1C[C@H](N)[C@@H](O[C@H]2O[C@H](CN)[C@@H](O)[C@H](O)[C@H]2O)[C@H](O)[C@H]1O[C@H]1O[C@H](CO)[C@@H](O)[C@H](N)[C@H]1O` [AMIKACIN], for which the Activity in assay [1] turned out to be 4%.

With `C[C@H]1[C@H](NC(=O)/C(=N\OC(C)(C)C(=O)O)c2csc(N)n2)C(=O)N1S(=O)(=O)O` [AZTREONAM], in assay [1], the Activity is 2%.

`CO/N=C(\C(=O)N[C@@H]1C(=O)N2C(C(=O)[O-])=C(C[N+]3(C)CCCC3)CS[C@H]12)c1csc(N)n1` [CEFEPIME]: the Activity in assay [1] was 8%.

Consider `CC(C)(O/N=C(\C(=O)N[C@@H]1C(=O)N2C(C(=O)[O-])=C(C[n+]3ccccc3)CS[C@H]12)c1csc(N)n1)C(=O)O` [CEFTAZIDIME], for which the Activity in assay [1] is reported as 23%. Moreover, the Activity in assay [2] was found to be 65%. In assay [3], this compound had an MIC50 of 32 µg/mL (≈ 58.5 µM) and an MIC90 of 128 µg/mL (≈ 234 µM).

`O=C(N[C@H](CO)[C@H](O)c1ccc([N+](=O)[O-])cc1)C(Cl)Cl` [CHLORAMPHENICOL]: in assay [1], the Activity stood at 5%. Also, in assay [2], the Activity was found to be 85%. In assay [3], this compound came in with an MIC50 of 64 µg/mL (≈ 198 µM) and an MIC90 greater than 64 µg/mL.

Turning to `O=C(O)c1cn(C2CC2)c2cc(N3CCNCC3)c(F)cc2c1=O` [CIPROFLOXACIN], the Activity in assay [1] is listed as 5%.

Regarding `C[C@H]1c2cccc(O)c2C(=O)C2=C(O)[C@]3(O)C(=O)C(C(N)=O)=C(O)[C@@H](N(C)C)[C@@H]3[C@@H](O)[C@@H]21.O` [DOXYCYCLINE], the Activity in assay [1] stood at 22%. The Activity in assay [2] worked out at 61%. In assay [3], this compound came in with an MIC50 of 16 µg/mL and an MIC90 greater than 32 µg/mL.

Consider `C[C@@H](O)[C@H]1C(=O)N2C(C(=O)O)=C(SCCNC=N)C[C@H]12` [IMIPENEM ANHYDROUS], for which, in assay [1], the Activity is 7%.

With `C[C@@H](O)[C@H]1C(=O)N2C(C(=O)O)=C(S[C@@H]3CN[C@H](C(=O)N(C)C)C3)[C@H](C)[C@H]12` [MEROPENEM], the Activity in assay [1] is given as 26%. Further, the Activity in assay [2] was found to be 48%. In assay [3], this compound gave an MIC50 of 8 µg/mL (≈ 20.9 µM) and an MIC90 of 32 µg/mL (≈ 83.4 µM).

Turning to `CN(C)c1ccc(O)c2c1C[C@H]1C[C@H]3[C@H](N(C)C)C(O)=C(C(N)=O)C(=O)[C@@]3(O)C(O)=C1C2=O` [MINOCYCLINE], the Activity in assay [1] amounted to 38%. In assay [2], the Activity amounted to 37%. In assay [3], this compound returned an MIC50 of 8 µg/mL (≈ 17.5 µM) and an MIC90 of 32 µg/mL (≈ 69.9 µM).

On to `CCN1CCN(C(=O)N[C@@H](C(=O)N[C@@H]2C(=O)N3[C@@H]2SC(C)(C)[C@@H]3C(=O)O)c2ccccc2)C(=O)C1=O` [PIPERACILLIN], for which the Activity in assay [1] stood at 11%. Also, the Activity in assay [2] is 80%. Further, in assay [3], the MIC50 was 256 µg/mL (≈ 495 µM) and the MIC90 was greater than 256 µg/mL.

For the compound `CO[C@H]1/C=C/O[C@@]2(C)Oc3c(C)c(O)c4c(O)c(c(/C=N/N5CCN(C)CC5)c(O)c4c3C2=O)NC(=O)/C(C)=C\C=C\[C@H](C)[C@H](O)[C@@H](C)[C@@H](O)[C@@H](C)[C@H](OC(C)=O)[C@@H]1C` [RIFAMPIN], in assay [1], the Activity is given as 1%.

`CC1(C)S[C@@H]2[C@H](NC(=O)[C@H](C(=O)O)c3ccsc3)C(=O)N2[C@H]1C(=O)O` [TICARCILLIN]: in assay [1], the Activity amounted to 2%.

The term MIC50 denotes an inhibitory concentration at the 50% level, which refers to growth in some studies and to a panel of isolates in others. The MIC90 is the lowest concentration that inhibits either 90% of growth or 90% of the strains tested, depending on the study. Lower therefore signals greater potency.
